The subject of test [1] is tissue-engineered adipose sheets. In words: Lipolysis measurements (glycerol release from adipose tissue sheets). It is filed as cell-based, human. As for the experimental part: Lipolysis measurements. The lipolytic cell response of the adipose tissue sheets cultured for 27 days was assessed by measuring the amount of glycerol released into the incubation medium after treatment with 1 μM isoproterenol or its appropriate vehicle control. The tissues were previously incubated in serum-free medium for a minimum of 2 days to avoid interference with serum factors, and rinsed with serum-free medium before the assay. After 1, 2, 4 and 24 hours, the conditioned medium was immediately tested for the release of glycerol using an enzyme-coupled glycerol assay based on a colorimetric quantification (Sigma).

Test [2] concerns adipose-derived stromal cells. In words: Quantification of adipose differentiation by Oil Red O staining. It counts as cell-based, human. The conditions noted are these: fresh stromal cells not submitted to freezing, medium with vs without ascorbic acid. As for the experimental part: Quantification of adipose differentiation. After 14 days of differentiation, independently of the time spent in culture before the time of adipogenic induction, Oil Red 0 (ORO) staining of the cytoplasmic neutral lipids of the droplets were performed according to a modification from [Kuri-Harcuch W et al. 1978; 75(12):6107-9, Ramirez-Zacarias J L et al. Histochemistry 1992; 97(6):493-7]. Briefly, cultures were rinsed, fixed with 10% buffered formalin, stained with 0.3% ORO in isopropanol and extracted with 4% Nonidet/isopropanol for quantification at 520 nm using a SpectraMax Plus™ spectrometer (Molecular Device) with SoftmaxPro™ Ver 4.7.1.

Regarding `CC(C)NCC(O)c1ccc(O)c(O)c1` (stereo not drawn) [Isoproterenol], the “time of peak in glycerol release post-stimulation” value in test [1] (1 μm isoproterenol, LA adipose tissue sheet cells in P3, adipocytes differentiated for 20 days, relative to basal levels) is 2 h. Also, the “lipolytic activation (hydrolysis of triglycerides into fatty acids and glycerol)” value in test [1] (isoproterenol 1 μM, adipose constructs from lipoaspirated fat in P3, 20 days of in vitro differentiation) is recorded as “induced the hydrolysis of triglycerides”.

For the compound `O=C1O[C@H]([C@@H](O)CO)C(O)=C1O` [ascorbic acid], the “adipocyte differentiation (ORO staining)” value in test [2] is on record as “can promote adipocyte differentiation”.
